These results are taken from patent US9596855B2, “Small molecule inhibitors of biofilm formation and the novel use of previously identified compounds for inhibition of biofilm formation and applications for drug therapy and medical device coating” (priority 2013, dated 2017).

The term IC50 denotes the concentration that inhibits the measured activity by half.

Each structure is given as a SMILES string.

Data set [1] relates to V. cholerae. The experiment in a line: image-based biofilm inhibition screening platform. In kind it is cell-based. Here is the method: In the present study, a 1,248-member prefractionated marine natural product library was evaluated for biofilm inhibitory activity using a recently-developed image-based screening platform. […] Prefraction 1671D is a semi-purified mixture that contains mixture of several individual compounds. Prefraction 1671D was therefore subjected to one-compound-one-well ‘peak library’ fractionation using the inventors' standard protocol that automatically separates the constituents of prefractions of interest based on HPLC retention times, and connects specific constituents to observed biological activities through secondary screening.
This activity was coupled with a striking biofilm macrocolony phenotype, providing strong justification for purification and full structural characterization of the active constituent. It was from 1671D that “compound 5” was isolated.

Data set [2] relates to HeLa cells. As to the kind of experiment: mammalian cell cytotoxicity. As to conditions: up to the highest tested concentration (250 μM). It is filed as cell-based.
In data set [3] the test system is V. cholerae. The experiment in a line: co-dosing of biofilm inhibitor with sub-MIC and sub-BIC antibiotics, image-based screen.
For data set [4], the system named is tested strains. As to the kind of experiment: bactericidal activity against tested strains. It is filed as cell-based. As to conditions: any of the tested strains.

Take `C=C1Oc2cc(OC)cc(C(=O)OC)c2NC1=O` [Compound 5]: the half-maximal inhibitory concentration (IC50) in data set [1] (Vibrio cholerae, read-out: biofilm inhibitory activity (IC50)) was 60.1 µM. Moreover, the “biofilm phenotype (epifluorescence and confocal images)” value in data set [1] (on treatment with compound) is “micro-colonies initially become less organized and less tightly packed”. The mammalian cell cytotoxicity result in data set [2] is given as “no mammalian cell cytotoxicity”. Besides, the biofilm-clearing efficacy entry in data set [3] (with sub-BIC concentrations of ceftazidime) and in data set [3] (with sub-BIC concentrations of ciprofloxacin) was “improve” in each case. Further, the bactericidal activity entry in data set [4] was “no bactericidal activity”.
